Test results reported in US8044069B2, “Compounds as calcium channel blockers” (Abbott Laboratories, priority 2008, dated 2011).

Biological target: human Cav2.2 (Homo sapiens, UniProt Q00975)
Assay: Assessment of calcium channel activity using FLIPR (Ca2+ influx in IMR32 cells)
Assay type: cell-based
Conditions: IMR32 cells endogenously expressing human Cav2.2; 60 minute pre-incubation; 2 μM nifedipine; depolarized with 80 mM KCl, 5 mM CaCl2
How it was run: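 FLIPR measured Ca2+ influx triggered by 80 mM KCl depolarization together with a step to 5 mM external CaCl2. Percent inhibition relative to uninhibited activity was fitted sigmoidally for IC50.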

human Cav2.2, sequence (Q00975 whole entry): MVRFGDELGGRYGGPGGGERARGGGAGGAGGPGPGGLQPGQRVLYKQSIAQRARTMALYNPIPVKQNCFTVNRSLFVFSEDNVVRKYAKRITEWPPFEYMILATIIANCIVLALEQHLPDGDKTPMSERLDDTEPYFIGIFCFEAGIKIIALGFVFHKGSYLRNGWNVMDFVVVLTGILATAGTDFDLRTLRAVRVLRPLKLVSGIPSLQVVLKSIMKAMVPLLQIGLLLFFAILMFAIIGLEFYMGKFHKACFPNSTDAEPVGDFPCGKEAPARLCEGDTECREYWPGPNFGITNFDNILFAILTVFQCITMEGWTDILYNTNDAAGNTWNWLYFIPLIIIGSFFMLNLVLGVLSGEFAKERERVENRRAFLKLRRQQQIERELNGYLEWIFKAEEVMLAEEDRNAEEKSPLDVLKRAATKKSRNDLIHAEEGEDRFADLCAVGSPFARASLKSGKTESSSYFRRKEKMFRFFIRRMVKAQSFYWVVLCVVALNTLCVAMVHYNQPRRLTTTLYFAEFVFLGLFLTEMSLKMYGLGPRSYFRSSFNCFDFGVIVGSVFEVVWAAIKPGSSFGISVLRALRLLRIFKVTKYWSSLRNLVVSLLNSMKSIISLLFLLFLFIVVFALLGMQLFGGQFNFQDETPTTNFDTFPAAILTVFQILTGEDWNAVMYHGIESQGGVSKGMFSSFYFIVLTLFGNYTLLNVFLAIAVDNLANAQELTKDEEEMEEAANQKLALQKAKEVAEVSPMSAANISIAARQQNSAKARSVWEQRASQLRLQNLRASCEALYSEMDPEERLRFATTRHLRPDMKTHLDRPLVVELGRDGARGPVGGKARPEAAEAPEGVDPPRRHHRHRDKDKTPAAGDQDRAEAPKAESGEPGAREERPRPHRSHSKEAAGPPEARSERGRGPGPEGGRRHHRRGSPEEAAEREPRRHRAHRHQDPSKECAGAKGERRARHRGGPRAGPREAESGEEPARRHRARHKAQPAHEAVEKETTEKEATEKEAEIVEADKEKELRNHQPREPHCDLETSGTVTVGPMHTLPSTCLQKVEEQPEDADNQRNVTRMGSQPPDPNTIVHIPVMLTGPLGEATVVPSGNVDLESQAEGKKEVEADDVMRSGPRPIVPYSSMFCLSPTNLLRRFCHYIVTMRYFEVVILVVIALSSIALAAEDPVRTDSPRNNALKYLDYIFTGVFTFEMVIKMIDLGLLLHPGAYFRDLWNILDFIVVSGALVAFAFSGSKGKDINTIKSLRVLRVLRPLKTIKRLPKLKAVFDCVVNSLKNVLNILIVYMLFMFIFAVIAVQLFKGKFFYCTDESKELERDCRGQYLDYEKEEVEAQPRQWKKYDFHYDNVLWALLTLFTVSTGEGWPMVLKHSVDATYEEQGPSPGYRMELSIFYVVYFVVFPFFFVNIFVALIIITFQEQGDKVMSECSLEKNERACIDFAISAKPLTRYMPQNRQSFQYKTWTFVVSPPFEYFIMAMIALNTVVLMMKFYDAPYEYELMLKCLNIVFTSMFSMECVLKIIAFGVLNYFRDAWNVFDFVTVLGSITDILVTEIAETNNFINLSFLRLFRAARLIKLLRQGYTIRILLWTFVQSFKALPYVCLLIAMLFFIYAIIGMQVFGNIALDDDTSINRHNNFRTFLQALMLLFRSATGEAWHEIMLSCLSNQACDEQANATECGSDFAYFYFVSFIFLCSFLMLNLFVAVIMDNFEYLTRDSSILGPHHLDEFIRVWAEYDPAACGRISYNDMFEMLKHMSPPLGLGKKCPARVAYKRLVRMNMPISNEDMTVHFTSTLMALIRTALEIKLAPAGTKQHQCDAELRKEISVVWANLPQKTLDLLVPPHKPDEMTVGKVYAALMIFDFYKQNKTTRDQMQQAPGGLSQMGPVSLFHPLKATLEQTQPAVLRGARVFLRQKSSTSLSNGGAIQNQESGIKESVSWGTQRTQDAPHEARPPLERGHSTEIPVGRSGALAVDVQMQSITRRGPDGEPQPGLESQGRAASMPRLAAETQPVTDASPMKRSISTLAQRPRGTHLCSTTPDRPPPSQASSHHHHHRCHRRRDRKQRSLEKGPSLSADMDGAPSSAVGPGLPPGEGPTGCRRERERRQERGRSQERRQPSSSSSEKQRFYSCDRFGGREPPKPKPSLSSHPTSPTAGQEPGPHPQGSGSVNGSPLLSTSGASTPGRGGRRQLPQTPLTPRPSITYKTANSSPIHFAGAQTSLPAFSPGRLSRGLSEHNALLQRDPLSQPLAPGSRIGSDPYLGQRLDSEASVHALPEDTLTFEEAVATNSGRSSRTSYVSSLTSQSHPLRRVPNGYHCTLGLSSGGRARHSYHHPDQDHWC
human Cav2.2, sequence (P54289 25-951 partner limits assumed): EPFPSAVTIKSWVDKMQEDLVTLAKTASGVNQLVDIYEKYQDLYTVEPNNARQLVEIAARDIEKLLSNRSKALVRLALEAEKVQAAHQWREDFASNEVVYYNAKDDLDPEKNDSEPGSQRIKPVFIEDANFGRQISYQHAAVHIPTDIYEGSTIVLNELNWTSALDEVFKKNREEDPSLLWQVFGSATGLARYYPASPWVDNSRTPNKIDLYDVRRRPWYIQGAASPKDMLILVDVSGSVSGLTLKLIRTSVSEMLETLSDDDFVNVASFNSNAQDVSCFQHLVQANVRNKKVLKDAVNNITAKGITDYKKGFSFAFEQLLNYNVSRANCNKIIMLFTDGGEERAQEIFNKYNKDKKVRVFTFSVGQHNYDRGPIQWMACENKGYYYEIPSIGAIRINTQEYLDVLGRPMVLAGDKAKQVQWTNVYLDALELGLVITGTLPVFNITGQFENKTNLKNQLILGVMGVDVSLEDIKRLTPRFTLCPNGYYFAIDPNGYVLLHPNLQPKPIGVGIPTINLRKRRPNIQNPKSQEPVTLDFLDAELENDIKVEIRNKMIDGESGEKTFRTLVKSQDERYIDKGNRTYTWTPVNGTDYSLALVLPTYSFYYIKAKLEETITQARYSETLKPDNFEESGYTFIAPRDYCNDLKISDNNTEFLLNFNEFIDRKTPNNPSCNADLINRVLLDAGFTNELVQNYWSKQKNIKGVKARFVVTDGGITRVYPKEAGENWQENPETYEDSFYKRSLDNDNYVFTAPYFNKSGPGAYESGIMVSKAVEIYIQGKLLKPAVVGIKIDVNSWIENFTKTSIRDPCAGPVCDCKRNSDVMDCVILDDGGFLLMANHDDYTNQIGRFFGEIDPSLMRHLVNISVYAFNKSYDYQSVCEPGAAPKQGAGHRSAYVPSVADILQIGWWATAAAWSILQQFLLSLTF
human Cav2.2, sequence (P54289 952-1103 partner limits assumed): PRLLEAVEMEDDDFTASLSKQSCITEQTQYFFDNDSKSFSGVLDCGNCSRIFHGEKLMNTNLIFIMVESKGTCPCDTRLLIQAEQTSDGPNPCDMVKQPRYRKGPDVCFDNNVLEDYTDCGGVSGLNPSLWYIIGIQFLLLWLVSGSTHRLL
human Cav2.2, sequence (P54284 whole entry partner): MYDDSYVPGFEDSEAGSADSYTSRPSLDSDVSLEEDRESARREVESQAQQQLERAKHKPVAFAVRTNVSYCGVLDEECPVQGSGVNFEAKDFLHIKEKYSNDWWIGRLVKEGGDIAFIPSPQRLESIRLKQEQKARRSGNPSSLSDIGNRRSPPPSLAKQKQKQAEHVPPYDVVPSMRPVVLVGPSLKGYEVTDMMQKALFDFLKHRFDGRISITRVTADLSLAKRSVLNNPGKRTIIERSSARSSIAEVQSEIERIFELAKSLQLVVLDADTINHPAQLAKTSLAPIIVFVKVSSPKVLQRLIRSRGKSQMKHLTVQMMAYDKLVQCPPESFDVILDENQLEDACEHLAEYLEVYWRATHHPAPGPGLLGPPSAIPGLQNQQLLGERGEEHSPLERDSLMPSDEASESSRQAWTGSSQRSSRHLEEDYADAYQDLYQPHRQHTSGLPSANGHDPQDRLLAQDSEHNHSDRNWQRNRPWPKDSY

Structure (SMILES) | IC50 [nM]
O=C(CN1CCNC(c2ccccc2)C1=O)N1CCN(C(c2ccccc2)c2ccccc2)CC1 (stereo not drawn) [Example 102, 1-[2-(4-benzhydrylpiperazin-1-yl)-2-oxoethyl]-3-phenylpiperazin-2-one] | 8390
O=C(CN1CCC(c2ccccc2)(c2ccccc2)C1=O)NCC1CCN(Cc2ccccc2)C1 (stereo not drawn) [Example 39, N-[(1-benzylpyrrolidin-3-yl)methyl]-2-(2-oxo-3,3-diphenylpyrrolidin-1-yl)acetamide] | 2600
O=C(CN1CCCC(c2ccccc2)C1=O)NC1(c2ccc(F)cc2)CCC1 (stereo not drawn) [Example 97, N-[1-(4-fluorophenyl)cyclobutyl]-2-(2-oxo-3-phenylpiperidin-1-yl)acetamide] | 10000
O=C(CN1CCCC(c2ccccc2)C1=O)N1Cc2ccc(C(F)(F)F)cc2C1 (stereo not drawn) [Example 178, 1-{2-oxo-2-[5-(trifluoromethyl)-1,3-dihydro-2H-isoindol-2-yl]ethyl}-3-phenylpiperidin-2-one] | 7730
O=C1C(c2ccccc2)CCCN1Cc1nc(-c2ccc(C(F)(F)F)cc2)no1 (stereo not drawn) [Example 181, 3-phenyl-1-({3-[4-(trifluoromethyl)phenyl]-1,2,4-oxadiazol-5-yl}methyl)piperidin-2-one] | 3270
O=C(CN1CCC(c2ccccc2)(c2ccccc2)C1=O)N1CCN(c2ccc(F)cc2)CC1 [Example 54, 1-{2-[4-(4-fluorophenyl)piperazin-1-yl]-2-oxoethyl}-3,3-diphenylpyrrolidin-2-one] | 2550
O=C(CN1CCC(c2ccccc2)(c2ccccc2)C1=O)NCCC(c1ccccc1)c1ccccc1 [Example 13, N-(3,3-diphenylpropyl)-2-(2-oxo-3,3-diphenylpyrrolidin-1-yl)acetamide] | 990
O=C(CN1CCC(c2ccccc2)(c2ccccc2)C1=O)N1CCN(Cc2c(Cl)cccc2Cl)CC1 [Example 36, 1-{2-[4-(2,6-dichlorobenzyl)piperazin-1-yl]-2-oxoethyl}-3,3-diphenylpyrrolidin-2-one] | 900
O=C(CN1CCC(c2ccccc2)(c2ccccc2)C1=O)NCC(c1ccccc1)c1ccccc1 [Example 15, N-(2,2-diphenylethyl)-2-(2-oxo-3,3-diphenylpyrrolidin-1-yl)acetamide] | 870
O=C1N(Cc2nc(-c3ccc(C(F)(F)F)cc3)no2)CCCC1(c1ccc(F)cc1)c1ccc(F)cc1 [Example 191, 3,3-bis(4-fluorophenyl)-1-({3-[4-(trifluoromethyl)phenyl]-1,2,4-oxadiazol-5-yl}methyl)piperidin-2-one] | 6870
COc1cc(OC)cc(OCCCN(C)CCN2CCC(c3ccc(F)cc3)(c3ccc(F)cc3)C2=O)c1 [Example 105, 1-{2-[[3-(3,5-dimethoxyphenoxy)propyl](methyl)amino]ethyl}-3,3-bis(4-fluorophenyl)pyrrolidin-2-one] | 1650
O=C(CN1CCC(c2ccc(F)cc2)(c2ccc(F)cc2)C1=O)N1C[C@@H]2CCCN(Cc3cccc(C(F)(F)F)c3)[C@@H]2C1 [Example 210, 3,3-bis(4-fluorophenyl)-1-(2-oxo-2-{(4aS,7aS)-1-[3-(trifluoromethyl)benzyl]octahydro-6H-pyrrolo[3,4-b]pyridin-6-yl}ethyl)pyrrolidin-2-one] | 960
O=C(CN1CCCC(c2ccccc2)(c2ccccc2)C1=O)NC1CN(Cc2cccc(C(F)(F)F)c2F)C1 [Example 201, N-{1-[2-fluoro-3-(trifluoromethyl)benzyl]azetidin-3-yl}-2-(2-oxo-3,3-diphenylpiperidin-1-yl)acetamide] | 860
O=C(CN1CCC(c2ccc(C(F)(F)F)cc2)C1=O)N1Cc2ccc(F)cc2C1 (stereo not drawn) [Example 266, 1-[2-(5-fluoro-1,3-dihydro-2H-isoindol-2-yl)-2-oxoethyl]-3-[4-(trifluoromethyl)phenyl]pyrrolidin-2-one] | 10100
O=C(CN1CCCC(c2ccccc2)C1=O)N1CCN(Cc2ccc(Cl)cc2Cl)CC1 (stereo not drawn) [Example 94, 1-{2-[4-(2,4-dichlorobenzyl)piperazin-1-yl]-2-oxoethyl}-3-phenylpiperidin-2-one] | 2200
O=C(CN1CCCC(c2ccccc2)C1=O)Nc1ccc(Cl)cn1 (stereo not drawn) [Example 192, N-(5-chloropyridin-2-yl)-2-(2-oxo-3-phenylpiperidin-1-yl)acetamide] | 12000
O=C1N(S(=O)(=O)c2ccc(C(F)(F)F)cc2Cl)CCC1(c1ccccc1)c1ccccc1 [Example 151, 1-{[2-chloro-4-(trifluoromethyl)phenyl]sulfonyl}-3,3-diphenylpyrrolidin-2-one] | 18300
O=C(CN1CCCC(c2ccccc2)(c2ccccc2)C1=O)N1CCN(S(=O)(=O)c2cccc(C(F)(F)F)c2)CC1 [Example 84, 1-[2-oxo-2-(4-{[3-(trifluoromethyl)phenyl]sulfonyl}piperazin-1-yl)ethyl]-3,3-diphenylpiperidin-2-one] | 410
O=C(CN1CCCC(c2ccccc2)(c2ccccc2)C1=O)N1CCC(C(O)(c2ccccc2)c2ccccc2)CC1 [Example 78, 1-(2-{4-[hydroxy(diphenyl)methyl]piperidin-1-yl}-2-oxoethyl)-3,3-diphenylpiperidin-2-one] | 1740
O=C(CN1CCC(c2ccc(F)cc2)C1=O)N1CCc2ccccc2C1 (stereo not drawn) [Example 253, 1-[2-(3,4-dihydroisoquinolin-2(1H)-yl)-2-oxoethyl]-3-(4-fluorophenyl)pyrrolidin-2-one] | 10600
O=C(CN1CCC(c2ccc(F)cc2)C1=O)N1CCc2ccc(C(F)(F)F)cc2C1 (stereo not drawn) [Example 254, 3-(4-fluorophenyl)-1-{2-oxo-2-[7-(trifluoromethyl)-3,4-dihydroisoquinolin-2(1H)-yl]ethyl}pyrrolidin-2-one] | 4320
O=C(CN1CCC(c2ccccc2)(c2ccccc2)C1=O)NC1CCCc2ccccc21 (stereo not drawn) [Example 27, 2-(2-oxo-3,3-diphenylpyrrolidin-1-yl)-N-1,2,3,4-tetrahydronaphthalen-1-ylacetamide] | 3030
O=C(CN1CCC(c2ccc(F)cc2)(c2ccc(F)cc2)C1=O)Nc1ccc(Cl)cn1 [Example 225, 2-[3,3-bis(4-fluorophenyl)-2-oxopyrrolidin-1-yl]-N-(5-chloropyridin-2-yl)acetamide] | 2480
COc1ccc2[nH]cc(C3=CCN(C(=O)CN4CCC(c5ccccc5)(c5ccccc5)C4=O)CC3)c2c1 [Example 35, 1-{2-[4-(5-methoxy-1H-indol-3-yl)-3,6-dihydropyridin-1(2H)-yl]-2-oxoethyl}-3,3-diphenylpyrrolidin-2-one] | 8070
O=C(CN1CCC(c2ccccc2)(c2ccccc2)C1=O)Nc1ccc(C(F)(F)F)cn1 [Example 246, 2-(2-oxo-3,3-diphenylpyrrolidin-1-yl)-N-[5-(trifluoromethyl)pyridin-2-yl]acetamide] | 3770
COc1ccc(C2(c3ccc(OC)cc3)CCCN(CCCN(C)CCCOc3cc(OC)cc(OC)c3)C2=O)cc1 [Example 116, 1-{3-[[3-(3,5-dimethoxyphenoxy)propyl](methyl)amino]propyl}-3,3-bis(4-methoxyphenyl)piperidin-2-one] | 2010
O=C1CN(CCN2CCC(c3ccccc3)(c3ccccc3)C2=O)CCN1C(c1ccccc1)c1ccccc1 [Example 66, 1-benzhydryl-4-[2-(2-oxo-3,3-diphenylpyrrolidin-1-yl)ethyl]piperazin-2-one] | 1830
